How the values were obtained:
[1] = molecular target: ERK1 (Homo sapiens, UniProt P27361); assay: ADP-Glo kinase assay; format: biochemical; details: for inhibition at 0.5 µM: read-out: Enzyme inhibitory activity (500 nM, %) ERK1
Method: (§1) The full-length human ERK1 or ERK2 with His-tag was cloned into a pET28a vector. hERK1/2 were expressed in Escherichia coli BL21(DE3), and then were purified using sequential Ni-NTA and Superdex 200 column steps. The SEC purified sample was then concentrated to 10 mg/ml and stored at −80 °C with buffer containing 20 mM HEPES pH 7.5, 150 mM NaCl. ERK5 (residues 48–395) containing His and GST tags was cloned into the pFastBac vector, and the recombinant plasmid was extracted. The recombinant plasmid was transformed into the DH10bac strain, and monoclonal was selected for culture. The recombinant Bacmid was then extracted according to the instructions of the Baculovirus Shuttle Vector Bacmid Mini Preparation Kit (Beyotime) and validated by PCR. 1 × 10^6/well Sf9 cells were counted for transfection and then amplified to obtain P3 ERK5 recombinant baculovirus. It was added to 2 × 10^6/mL Sf9 cells and incubated at 27 °C for 72 h on a shaker to express ERK5. Cells were lysed and supernatant was collected on a Ni-NTA for purification, and a 250 mM imidazole eluate was collected. Next, digestion by TEV protease was performed overnight while dialysis was performed in approximately 1000 mL of imidazole-free buffer. The digested ERK5 protein was sequentially purified on the Ni-NTA and GST-tag Purification Resin, followed by size exclusion chromatography on a Superdex 75 column. ERK5 protein was collected and concentrated to 12 mg/ml and stored at −80 °C in buffer containing 50 mM HEPES pH 8.0, 200 mM NaCl, 10% (v/v) glycerol.
(§2) ERK1/2/5 kinase activity assay was conducted using ADP-Glo™ Kinase Assay. 2× ATP solution and 2× kinase & Metal solution were prepared using assay buffer were prepared using assay buffer containing 50 mM Hepes pH 7.5, 10 mM MgCl2; 0.01% Brij35, 1 mM EGTA, 2 mM DTT. Transfer 40 nL compounds to 384 assay plate. Add 2 μL of 2× kinase & Metal solution were mixed and incubated in a 384-assay plate for 10 min at 25 °C. 2 μL of 2×ATP solution was added and incubated at 25 °C for 60 min. And then, each well was supplemented with 4 µL of ADP-Glo^TM reagent and incubated at 25 °C for 40 min. Subsequently, 8 µL of Kinase Detection Reagent was added and incubated at 25 °C for 40 min. Finally, the luminescence signals were recorded. The IC50 values were calculated using GraphPad Prism 9.5 software.

[2] = molecular target: ERK2 (Homo sapiens, UniProt P28482); assay: ADP-Glo kinase assay; format: biochemical; details: for inhibition at 0.5 µM: read-out: Enzyme inhibitory activity (500 nM, %) ERK2
Method: as §1, §2

[3] = molecular target: ERK5 (Homo sapiens, UniProt Q13164); assay: ADP-Glo kinase assay; format: biochemical; details: for inhibition at 0.5 µM: read-out: Enzyme inhibitory activity (500 nM, %) ERK5
Method: as §1, §2

[4] = test system: MDA-MB-231 cells; assay: MTT cell viability assay; format: cell-based; details: 10 μM
Method: (§3) MDA-MB-468 and MDA-MB-436 cells were cultured in Leibovitz’s L-15 medium supplemented with 10% fetal bovine serum. […] All of the cells were cultured at 37 °C in a humidified atmosphere containing 5% CO2.
(§4) Cancer cells were seeded in a density in 96-well plates (2 × 10^3 cells per well). After incubation for 24 h, cancer cells were treated with compounds (0–20 μM) for 72 h.

[5] = test system: MDA-MB-468 cells; assay: MTT cell viability assay; format: cell-based; details: 10 μM
Method: as §3, §4

Chain of ERK1 (P27361 whole entry, the tested form may be a part): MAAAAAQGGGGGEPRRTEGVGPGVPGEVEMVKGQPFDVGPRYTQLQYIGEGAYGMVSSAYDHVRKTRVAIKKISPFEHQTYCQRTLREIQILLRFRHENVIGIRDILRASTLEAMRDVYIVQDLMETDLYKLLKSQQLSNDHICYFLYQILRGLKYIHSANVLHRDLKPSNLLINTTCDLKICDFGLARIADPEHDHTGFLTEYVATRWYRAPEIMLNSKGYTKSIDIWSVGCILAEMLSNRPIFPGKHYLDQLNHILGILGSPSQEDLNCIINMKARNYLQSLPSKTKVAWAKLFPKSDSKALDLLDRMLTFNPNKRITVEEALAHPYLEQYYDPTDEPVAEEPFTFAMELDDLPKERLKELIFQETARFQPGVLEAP
Chain of ERK5 (Q13164 whole entry): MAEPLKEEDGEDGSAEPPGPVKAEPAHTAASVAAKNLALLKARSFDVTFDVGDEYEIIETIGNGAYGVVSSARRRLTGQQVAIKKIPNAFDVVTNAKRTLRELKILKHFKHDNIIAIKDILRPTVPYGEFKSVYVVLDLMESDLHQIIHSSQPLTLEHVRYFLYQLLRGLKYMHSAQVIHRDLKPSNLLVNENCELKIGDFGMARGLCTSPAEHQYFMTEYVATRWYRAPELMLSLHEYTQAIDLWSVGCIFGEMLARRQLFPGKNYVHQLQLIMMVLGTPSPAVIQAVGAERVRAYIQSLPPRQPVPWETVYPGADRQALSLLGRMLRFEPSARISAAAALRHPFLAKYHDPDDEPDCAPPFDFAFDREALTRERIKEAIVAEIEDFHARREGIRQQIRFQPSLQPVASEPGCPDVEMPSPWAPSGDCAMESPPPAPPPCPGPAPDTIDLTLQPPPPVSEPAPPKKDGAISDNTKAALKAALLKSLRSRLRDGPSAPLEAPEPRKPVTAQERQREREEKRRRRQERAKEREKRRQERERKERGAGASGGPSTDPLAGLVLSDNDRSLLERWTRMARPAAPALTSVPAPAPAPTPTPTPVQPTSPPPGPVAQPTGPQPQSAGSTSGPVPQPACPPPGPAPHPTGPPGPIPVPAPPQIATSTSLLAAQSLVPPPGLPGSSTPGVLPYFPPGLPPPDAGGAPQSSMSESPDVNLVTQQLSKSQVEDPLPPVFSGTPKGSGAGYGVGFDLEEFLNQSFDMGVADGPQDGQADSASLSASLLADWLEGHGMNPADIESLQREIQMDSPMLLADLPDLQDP
Chain of ERK2 (P28482 whole entry): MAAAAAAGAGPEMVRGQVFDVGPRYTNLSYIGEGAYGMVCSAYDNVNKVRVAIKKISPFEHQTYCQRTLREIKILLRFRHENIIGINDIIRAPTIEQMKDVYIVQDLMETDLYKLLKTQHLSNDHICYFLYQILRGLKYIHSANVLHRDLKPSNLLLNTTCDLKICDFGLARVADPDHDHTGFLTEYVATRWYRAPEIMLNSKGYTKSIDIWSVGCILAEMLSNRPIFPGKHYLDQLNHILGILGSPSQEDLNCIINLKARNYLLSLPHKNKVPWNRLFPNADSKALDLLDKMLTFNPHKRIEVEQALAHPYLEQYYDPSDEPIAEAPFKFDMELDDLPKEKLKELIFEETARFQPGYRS

SMILES | inhibition at 0.5 µM [1] [%] | inhibition at 0.5 µM [2] [%] | inhibition at 0.5 µM [3] [%] | Anti-proliferative activity (10 μM, %) MDA-MB-231 [4] [%] | Anti-proliferative activity (10 μM, %) MDA-MB-468 [5] [%] | Enzyme inhibitory activity (500 nM, %) ERK1 [1] [%] | Enzyme inhibitory activity (500 nM, %) ERK2 [2] [%] | Enzyme inhibitory activity (500 nM, %) ERK5 [3] [%]
CN1CCN(NC(=O)c2cc(-c3nc(Nc4ccnn4C)ncc3Cl)cs2)CC1 [6a, 4-(5-chloro-2-((1-methyl-1H-pyrazol-5-yl)amino)pyrimidin-4-yl)-N-(4-methylpiperazin-1-yl)thiophene-2-carboxamide] | 95.72 ± 0.65 | 97.4 ± 3.45 | 63.8 ± 0.32 | 15.06 ± 0.35 | 10.78 ± 1.32 |  |  | 
CSc1ccc(NC(=O)c2cc(-c3nc(Nc4ccnn4C)ncc3Cl)cs2)cc1 [6ac] |  |  |  | 22.57 ± 1.11 | 18.49 ± 0.23 | 95.98 ± 1.02 | 97.67 ± 0.90 | 69.90 ± 2.56
CC(C)Oc1ccc(NC(=O)c2cc(-c3nc(Nc4ccnn4C)ncc3Cl)cs2)cc1 [6ae] |  |  |  | 15.96 ± 0.09 | 4.62 ± 0.89 | 93.45 ± 1.80 | 95.32 ± 0.08 | 61.02 ± 1.22
COc1ccc(NC(=O)c2cc(-c3nc(Nc4ccnn4C)ncc3Cl)cs2)cc1OC [6ag, 4-(5-chloro-2-((1-methyl-1H-pyrazol-5-yl)amino)pyri-midin-4-yl)-N-(3,4-dimethoxyphenyl)thiophene-2-carboxamide] |  |  |  | 33.67 ± 0.08 | 25.61 ± 0.45 | 92.13 ± 1.04 | 94.53 ± 1.21 | 65.13 ± 0.90
CN1CCN(C(=O)c2cc(-c3nc(Nc4ccnn4C)ncc3Cl)cs2)CC1 [6b] |  |  |  | 3.15 ± 1.22 | 25.81 ± 2.43 | 40.45 ± 1.23 | 39.03 ± 2.13 | 28.02 ± 1.34
CC(C)N1CCN(C(=O)c2cc(-c3nc(Nc4ccnn4C)ncc3Cl)cs2)CC1 [6c] |  |  |  | 5.71 ± 1.21 | 3.51 ± 0.77 | 21.57 ± 2.34 | 14.38 ± 0.24 | 19.12 ± 2.15
Cn1nccc1Nc1ncc(Cl)c(-c2csc(C(=O)NC3CCSCC3)c2)n1 [6d] |  |  |  | 37.21 ± 0.72 | 23.35 ± 2.34 | 93.12 ± 1.89 | 91.52 ± 0.31 | 34.57 ± 1.42
Cn1nccc1Nc1ncc(Cl)c(-c2csc(C(=O)NN3CCOCC3)c2)n1 [6e] |  |  |  | 11.49 ± 1.48 | 0.70 ± 0.45 | 97.82 ± 0.43 | 99.00 ± 0.56 | 70.61 ± 0.98
Cn1nccc1Nc1ncc(Cl)c(-c2csc(C(=O)N[C@H]3CC[C@H](O)CC3)c2)n1 [6f] |  |  |  | 11.85 ± 2.31 | 57.68 ± 1.09 | 89.31 ± 0.87 | 89.54 ± 2.31 | 35.94 ± 1.21
Cc1cc(NC(=O)c2cc(-c3nc(Nc4ccnn4C)ncc3Cl)cs2)ccn1 [6g] |  |  |  | 6.82 ± 2.13 | 20.23 ± 0.32 | 70.32 ± 0.91 | 72.75 ± 2.14 | 73.61 ± 3.12
Cn1nccc1Nc1ncc(Cl)c(-c2csc(C(=O)NCc3cnccn3)c2)n1 [6h] |  |  |  | 23.65 ± 1.27 | 7.43 ± 3.45 |  |  | 
Cn1nccc1Nc1ncc(Cl)c(-c2csc(C(=O)Nc3ccccc3)c2)n1 [6i] |  |  |  | 5.65 ± 0.22 | -12.07 ± 2.31 |  |  | 
Cn1nccc1Nc1ncc(Cl)c(-c2csc(C(=O)Nc3cccc(F)c3)c2)n1 [6j] |  |  |  | 25.73 ± 0.57 | 10.11 ± 0.76 |  |  | 
Cn1nccc1Nc1ncc(Cl)c(-c2csc(C(=O)Nc3cccc(Cl)c3)c2)n1 [6k] |  |  |  | 39.12 ± 1.23 | 23.41 ± 0.48 | 59.39 ± 3.21 | 57.85 ± 0.88 | 36.99 ± 0.32
Cn1nccc1Nc1ncc(Cl)c(-c2csc(C(=O)Nc3cccc(Br)c3)c2)n1 [6l] |  |  |  | 33.90 ± 1.22 | 23.35 ± 2.37 | 47.12 ± 9.23 | 46.65 ± 0.32 | 32.34 ± 0.89
Cn1nccc1Nc1ncc(Cl)c(-c2csc(C(=O)Nc3cccc(C(F)(F)F)c3)c2)n1 [6m] |  |  |  | 34.62 ± 1.24 | 30.41 ± 0.68 | 50.98 ± 3.23 | 53.43 ± 0.43 | 35.45 ± 1.32
Cn1nccc1Nc1ncc(Cl)c(-c2csc(C(=O)Nc3cccc(OC(F)(F)F)c3)c2)n1 [6n] |  |  |  | 43.93 ± 0.21 | 33.21 ± 0.54 | 67.08 ± 0.98 | 66.54 ± 2.11 | 18.64 ±2.32
Cn1nccc1Nc1ncc(Cl)c(-c2csc(C(=O)Nc3cccc(N)c3)c2)n1 [6p] |  |  |  | 33.51 ± 0.32 | 28.42 ± 1.21 | 86.34 ± 0.79 | 84.67 ± 0.65 | 77.49 ± 0.89
Cc1cccc(NC(=O)c2cc(-c3nc(Nc4ccnn4C)ncc3Cl)cs2)c1 [6q] |  |  |  | 29.43 ± 3.25 | 33.20± 0.44 | 80.23 ± 0.68 | 82.11 ±0.61 | 65.90 ± 3.12
CCc1cccc(NC(=O)c2cc(-c3nc(Nc4ccnn4C)ncc3Cl)cs2)c1 [6r] |  |  |  | 15.53 ± 0.90 | 30.21 ± 1.11 | 88.34 ± 1.78 | 89.45 ± 1.55 | 67.34 ± 3.20
Cn1nccc1Nc1ncc(Cl)c(-c2csc(C(=O)Nc3ccc(C(F)(F)F)cc3)c2)n1 [6y] |  |  |  | 8.87 ± 1.11 | 9.83 ± 0.93 | 50.78 ± 0.89 | 51.08 ±2.31 | 23.21 ± 3.45
COc1ccc(NC(=O)c2cc(-c3nc(Nc4ccn(C)n4)ncc3Cl)cs2)cc1 [9a] |  |  |  | 1.23 ± 1.20 | 8.70 ± 3.21 | 41.09 ± 1.05 | 45.57 ± 0.34 | 21.12 ± 2.34
CN(C)Cc1cccc(Nc2ncc(Cl)c(-c3csc(C(=O)Nc4cccc(N(C)C)c4)c3)n2)c1 [18d] |  |  |  | 85.64 ± 1.02 | 50.45 ± 2.12 |  | 23.97 ± 0.90 | 78.85 ± 2.67
COc1cc(N2CCN(C)CC2)ccc1NC(=O)c1cc(-c2nc(Nc3ccnn3C)ncc2Cl)cs1 [H1] | 62.5 | 64.2 | 59.5 |  |  |  |  | 

— article PMC11842588, “A first-in-class selective inhibitor of ERK1/2 and ERK5 overcomes drug resistance with a single-molecule strategy” (Signal Transduction and Targeted Therapy, 2025)
